Measurements as given in ChEMBL document CHEMBL1201862, “PubChem BioAssay data set” (2004).
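Protocol summary: plate cells (96-well), add compound at 5 concentrations, incubate 48 h, interpolate endpoints linearly. GI50 is the concentration that inhibits growth by half.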 Calls of active or inactive are those of the source. Cut-off read from the data, not from the text of the source: active = GI50 up to about 1.1 µM and inactive = higher.

Legend:
Experiment in all cases: NCI anticancer screen, dose series, 48 h
[1] = system: 786-0
[2] = system: A498
[3] = system: A549
[4] = system: ACHN
[5] = system: CAKI-1
[6] = system: CCRF-CEM
[7] = system: COLO 205
[8] = system: DLD-1
[9] = system: DMS-114
[10] = system: DMS-273
[11] = system: EKVX
[12] = system: HCC 2998
[13] = system: HCT-116
[14] = system: HCT-15
[15] = system: HL-60
[16] = system: HOP-18
[17] = system: HOP-62
[18] = system: HOP-92
[19] = system: HT-29
[20] = system: IGROV-1
[21] = system: K562
[22] = system: KM-20L2
[23] = system: KM12
[24] = system: LOX IMVI
[25] = system: LXFL 529
[26] = system: M14
[27] = system: M19-MEL
[28] = system: MOLT-4
[29] = system: Malme-3M
[30] = system: NCI-H226
[31] = system: NCI-H23
[32] = system: NCI-H460
[33] = system: NCI-H522
[34] = system: OVCAR-3
[35] = system: OVCAR-4
[36] = system: OVCAR-5
[37] = system: OVCAR-8
[38] = system: RPMI-8226
[39] = system: RXF 631
[40] = system: SF-268
[41] = system: SF-295
[42] = system: SF-539
[43] = system: SK-MEL-28
[44] = system: SK-MEL-2
[45] = system: SK-MEL-5
[46] = system: SK-OV-3
[47] = system: SN12C
[48] = system: SNB-19
[49] = system: SNB-75
[50] = system: SNB-78
[51] = system: SR
[52] = system: SW-620
[53] = system: TK-10
[54] = system: U-251
[55] = system: UACC-257
[56] = system: UACC-62
[57] = system: UO-31
[58] = system: XF498
[59] = system: RXF 393

CC(C)C(/N=C1\CC2CCC1(C(=O)Nc1ccccc1O)C2(C)C)c1ccccc1 (stereo unspecified)
GI50 [1]: > 10 µM (inactive)
GI50 [2]: > 10 µM (inactive)
GI50 [3]: > 10 µM (inactive)
GI50 [4]: > 10 µM (inactive)
GI50 [5]: > 10 µM (inactive)
GI50 [6]: > 10 µM (inactive)
GI50 [7]: > 10 µM (inactive)
GI50 [8]: > 10 µM (inactive)
GI50 [9]: > 10 µM (inactive)
GI50 [10]: > 10 µM (inactive)
GI50 [11]: 7.43 µM (inactive)
GI50 [12]: > 10 µM (inactive)
GI50 [13]: 6.61 µM (inactive)
GI50 [14]: > 10 µM
GI50 [15]: 2.4 µM (inactive)
GI50 [16]: > 10 µM (inactive)
GI50 [17]: > 10 µM (inactive)
GI50 [18]: 2.23 µM (inactive)
GI50 [19]: 9.75 µM (inactive)
GI50 [20]: > 10 µM (inactive)
GI50 [21]: > 10 µM (inactive)
GI50 [22]: > 10 µM (inactive)
GI50 [23]: > 10 µM (inactive)
GI50 [24]: > 10 µM (inactive)
GI50 [25]: > 10 µM (inactive)
GI50 [26]: > 10 µM (inactive)
GI50 [27]: > 10 µM (inactive)
GI50 [28]: 3.18 µM (inactive)
GI50 [29]: > 10 µM (inactive)
GI50 [30]: > 10 µM (inactive)
GI50 [31]: 7.67 µM (inactive)
GI50 [32]: 7.67 µM (inactive)
GI50 [33]: 6.58 µM (inactive)
GI50 [34]: > 10 µM (inactive)
GI50 [35]: > 10 µM (inactive)
GI50 [36]: > 10 µM (inactive)
GI50 [37]: > 10 µM (inactive)
GI50 [38]: 5.11 µM (inactive)
GI50 [39]: > 10 µM (inactive)
GI50 [40]: > 10 µM (inactive)
GI50 [41]: > 10 µM (inactive)
GI50 [42]: > 10 µM (inactive)
GI50 [43]: > 10 µM (inactive)
GI50 [44]: > 10 µM (inactive)
GI50 [45]: 6.44 µM (inactive)
GI50 [46]: > 10 µM (inactive)
GI50 [47]: > 10 µM (inactive)
GI50 [48]: > 10 µM (inactive)
GI50 [49]: > 10 µM (inactive)
GI50 [50]: > 10 µM (inactive)
GI50 [51]: > 10 µM (inactive)
GI50 [52]: 4.8 µM (inactive)
GI50 [53]: > 10 µM (inactive)
GI50 [54]: > 10 µM (inactive)
GI50 [55]: 5.89 µM (inactive)
GI50 [56]: > 10 µM (inactive)
GI50 [57]: > 10 µM (inactive)
GI50 [58]: 7.29 µM (inactive)

CC12CCC(=O)N1c1cc([N+](=O)[O-])ccc1N2 (stereo unspecified)
GI50 [1]: > 100 µM (inactive)
GI50 [2]: > 100 µM (inactive)
GI50 [3]: > 100 µM (inactive)
GI50 [4]: > 100 µM (inactive)
GI50 [6]: > 100 µM (inactive)
GI50 [7]: > 100 µM (inactive)
GI50 [8]: > 100 µM (inactive)
GI50 [9]: > 100 µM (inactive)
GI50 [10]: > 100 µM (inactive)
GI50 [11]: > 100 µM (inactive)
GI50 [13]: > 100 µM (inactive)
GI50 [14]: > 100 µM
GI50 [15]: > 100 µM (inactive)
GI50 [16]: > 100 µM (inactive)
GI50 [17]: > 100 µM (inactive)
GI50 [19]: > 100 µM (inactive)
GI50 [20]: > 100 µM (inactive)
GI50 [21]: > 100 µM (inactive)
GI50 [22]: > 100 µM (inactive)
GI50 [23]: > 100 µM (inactive)
GI50 [24]: > 100 µM (inactive)
GI50 [25]: > 100 µM (inactive)
GI50 [26]: > 100 µM (inactive)
GI50 [27]: > 100 µM (inactive)
GI50 [28]: > 100 µM (inactive)
GI50 [29]: > 100 µM (inactive)
GI50 [30]: > 100 µM (inactive)
GI50 [31]: > 100 µM (inactive)
GI50 [33]: > 100 µM (inactive)
GI50 [34]: > 100 µM (inactive)
GI50 [35]: > 100 µM (inactive)
GI50 [37]: > 100 µM (inactive)
GI50 [38]: > 100 µM (inactive)
GI50 [59]: > 100 µM (inactive)
GI50 [39]: > 100 µM (inactive)
GI50 [40]: > 100 µM (inactive)
GI50 [41]: > 100 µM (inactive)
GI50 [42]: > 100 µM (inactive)
GI50 [43]: > 100 µM (inactive)
GI50 [44]: > 100 µM (inactive)
GI50 [45]: > 100 µM (inactive)
GI50 [46]: > 100 µM (inactive)
GI50 [47]: > 100 µM (inactive)
GI50 [48]: > 100 µM (inactive)
GI50 [49]: > 100 µM (inactive)
GI50 [50]: > 100 µM (inactive)
GI50 [51]: 76 µM (inactive)
GI50 [52]: > 100 µM (inactive)
GI50 [54]: > 100 µM (inactive)
GI50 [55]: > 100 µM (inactive)
GI50 [56]: > 100 µM (inactive)
GI50 [57]: > 100 µM (inactive)
GI50 [58]: > 100 µM (inactive)
